Source: patent publication US8927521B2, “Cyclic adenosine monophosphates for reducing the formation of adhesions” (University of Pittsburgh—of the Commonwealth System of …, priority 2008, dated 2015)
Values joined by “and” are separate entries in the source; they are usually repeats but may differ in a detail not shown here. Equal entries are not always repeated.

How the values were obtained:
[1] = system: post-surgical adhesion formation; assay: Post-surgical adhesion formation in mice, all groups co-treated with 1,3-dipropyl-8-(p-sulfophenyl)xanthine (Example 2); assay type: in vivo; conditions: for adhesion score (mean±standard error of mean): scale 1 to 5; for adhesion scores (individual animals): one value per mouse
Description: (§1) This protocol examined the effects of several treatments on post-surgical adhesion formation. Six-week-old C57Bl mice were fasted overnight and then anesthetized the following day with an intraperitoneal injection of pentobarbital (50 mg/kg). The surgical procedures were conducted under aseptic conditions. The abdomen was shaved to remove hair, and the incision site was cleaned with betadine solution. Surgery was performed under a laminar flow hood using instruments sterilized in a glass bead sterilizer. The abdomen was opened via a midline incision of approximately 10 mm. The cecum was exposed and placed on sterile gauze. […] After 30 seconds, the ethanol was washed from the cecum surface with 1-ml of test solution. Next, the cecum was returned to the peritoneal cavity and placed in its natural position. Then 1-ml of test solution was placed in the peritoneal cavity, and the abdominal incision was repaired by suturing. […] The animals were placed under a warming lamp and observed until they regained consciousness. After regaining consciousness, the mice were placed back in the housing cage.
Ten days later, the animals were again anesthetized with pentobarbital, and the abdomen was surgically opened to provide a clear view of the intestines. The severity of adhesion formation was assessed on a semi-quantitative scale from 1 to 5, taking into account the extent of adhesion formation (with 1 being the least amount of adhesion formation and 5 being the most amount of adhesion formation). Adhesions were identified visually and by noting the difficulty of separating adjacent surfaces. Adhesion scores were assigned by an individual blinded to (that is unaware of) the test solutions used to treat the animals. The scoring was based on the extent of adhesion of the cecum to itself and to adjacent tissues or organs. A score of 1 was assigned to animals when there was only minimal (approximately >10 to <20%) adhesion of the cecum to itself (that is within the cecum core) with no adhesion of the cecum to other adjacent structures (abdominal wall, liver or intestines). A score of 2 was assigned when there was mild (approximately >20 to <30%) adhesion of the cecum to itself or when there was minimal (approximately >10 to <20%) adhesion of the cecum to itself but in addition minimal adhesion of the cecum to adjacent structures. A score of 3 was assigned to animals when the adhesion of the cecum to itself was moderate (approximately >30 to <50%), in the absence or presence of minimal adhesion of the cecum to adjacent structures. A score of 4 was assigned to animals when the adhesion of the cecum to itself was severe (approximately >60 to <80%) or when there was moderate adhesion to adjacent structures or both. A score of 5 was assigned to animals when adhesion of the cecum to itself was so extensive that it existed as one entity (complete adhesion within itself) or when there was severe adhesion of the cecum to itself but in addition severe adhesion of the cecum to adjacent structures.

[2] = system: P1 adenosine receptor subtypes (A1, A2A, A2B and A3); conditions: at 1 mM; cited from earlier work
[3] = system: post-surgical adhesion formation; assay: Post-surgical abdominal adhesion formation after cecum injury in mice (Example 1); assay type: in vivo, C57Bl mice; conditions: for adhesion score compared with saline control group or other treatments (Fisher's Least Significant Difference test): post-hoc analysis, Example 1; for adhesion score (mean±standard error of mean): 1 ml wash + 1 ml in peritoneal cavity, scored ten days later; for adhesion scores for all mice (individual animals): one value per mouse
Description: as §1, with “cage. Ten days later, the animals were again anesthetized with pentobarbital, and the abdomen was surgically opened to provide a clear view of the intestines. […] Adhesions were identified visually and by noting the difficulty of separating adjacent surfaces. Adhesion scores were assigned by an individual blinded to (that is unaware of) the test solutions used to treat the animals. The scoring was based on the extent of adhesion of the cecum to itself and to adjacent tissues or organs. […] In this example, there were six groups that were treated with test solutions containing chemical agents of interest. In addition, there was a seventh group (the control group) in which the test solution was only the vehicle in which the chemical agents of interest were dissolved. The vehicle for all six test solutions was 0.9% saline, so the seventh group (control group) received only 0.9% saline as the test solution.” for “cage.”

[4] = Source text: However, there are serious limitations with regard to using adenosine for this purpose that preclude an optimal anti-adhesive efficacy. […] Dis Colon Rectum. […] Consequently the time-concentration profile of adenosine in the surgical field cannot be optimized.
[5] = scale 1 to 5, 75 millimoles/L in 0.9% saline

| SMILES | efficacy in inhibiting formation of post-surgical abdominal adhesions (in words) ([3]; 75 millimoles/L) | adhesion score compared with saline control group or other treatments (Fisher's Least Significant Difference test) [3] | adhesion score (mean±standard error of mean) [3, 5] | concentration of stable aqueous solutions (aqueous solubility) [4] [millimoles/L] | also measured |
| --- | --- | --- | --- | --- | --- |
| CCCn1c(=O)c2[nH]c(-c3ccc(S(=O)(=O)O)cc3)nc2n(CCC)c1=O [1,3-dipropyl-8-(p-sulfophenyl)xanthine] | – | – | – | – | adhesion score (mean±standard error of mean) ([1]; 1,3-dipropyl-8-(p-sulfophenyl)xanthine 1 mM + saline only (group headed Saline)): 4.75±0.22; adhesion scores (individual animals) ([1]; 1,3-dipropyl-8-(p-sulfophenyl)xanthine 1 mM + saline only): 5 (3×) and 4; blockade of adenosine receptor subtypes [2]: blocks all four P1 adenosine receptor subtypes |
| Nc1ncnc2c1ncn2[C@@H]1O[C@H](CO)[C@@H](O)[C@H]1OP(=O)(O)O [2′-adenosine monophosphate] | nearly inactive | only slightly less than | 4.08±0.15 | – | adhesion scores for all mice (individual animals) ([3]; scale 1 to 5, 75 millimoles/L, listed as 2′-AMP): 4 (9×) and 3 and 5 (2×) |
| Nc1ncnc2c1ncn2[C@@H]1O[C@H](CO)[C@@H](OP(=O)(O)O)[C@H]1O [3′-adenosine monophosphate] | nearly inactive | only slightly less than | 4.00±0.17 | – | adhesion scores for all mice (individual animals) ([3]; scale 1 to 5, 75 millimoles/L, listed as 3′-AMP): 4 (8×) and 3 (2×) and 5 (2×) |
| Nc1ncnc2c1ncn2[C@@H]1O[C@H](COP(=O)(O)O)[C@@H](O)[C@H]1O [5′-adenosine monophosphate] | nearly inactive | only slightly less than | 3.82±0.18 | > 75 | adhesion scores for all mice (individual animals) ([3]; scale 1 to 5, 75 millimoles/L, listed as 5′-AMP): 4 (7×) and 3 (3×) and 5 |
| Nc1ncnc2c1ncn2[C@@H]1O[C@H](CO)[C@@H](O)[C@H]1O [Adenosine] | – | – | – | ≤ 23 | adhesion score (mean±standard error of mean) ([3]; scale 1 (least) to 5 (most), 23 millimoles/L in 0.9% saline): 3.08±0.15; adhesion scores for all mice (individual animals) ([3]; scale 1 to 5, 23 millimoles/L): 3 (9×) and 4 (2×) and 2; adhesion scores (individual animals) ([1]; 23 mM + 1,3-dipropyl-8-(p-sulfophenyl)xanthine 1 mM): 4 (3×) and 5; adhesion score (mean±standard error of mean) ([1]; 23 millimoles/L + 1,3-dipropyl-8-(p-sulfophenyl)xanthine 1 mM): 4.25±0.22; adhesion score compared with the saline group (Fisher's Least Significant Difference test) ([1]; in presence of 1,3-dipropyl-8-(p-sulfophenyl)xanthine 1 mM): did not significantly reduce |
